Where two headings read alike, the source gives them in different places.
What was measured:
[1] = biological target: T1, UBL-5 (Caenorhabditis elegans, UniProt P91302); experiment: Thermal proteome profiling (TPP); type: binding; conditions: compound 50 μM, C. elegans lysate, 37-67 °C
T1 construct: from tissue; host or cells: whole-worm lysate of C. elegans N2 (young adults / L4s)

[2] = HepG2 cytotoxicity (CellTiter-Glo); type: cell-based; conditions: human, HepG2 cells, read-out: half-maximal cytotoxic concentration (CC50)
Protocol: The cytotoxicity of UMW-9729 and six key derivatives (12, 14, 15, 16, 18 and 25) on human hepatoma (HepG2) cells was evaluated as described previously ([Gilson et al., 2017]). In short, HepG2 cells were first cultured (in an incubator at 5 % (v/v) CO2, 37 °C, >90 % humidity) in Dulbecco's modified Eagle's medium (DMEM) supplemented with 5 % foetal bovine serum (FBS). Test compounds were serially-diluted (10-points, 2-fold serial dilution, top concentration of 50 μM) in DMEM + 10 % FBS, adjusted to a 0.5 % DMSO concentration and arrayed across a 384-well plate. Bortezomib (10 μM) was used as a positive control; 0.5 % DMSO was used as a negative control. HepG2 cells (1 × 10^3 cells per 50 μL of DMEM + 10 % FBS) were then seeded into wells of the assay plate; plates were the incubated (5 % (v/v) CO2, 37 °C, >90 % humidity) for 48 h. Cell proliferation was subsequently determined using CellTiter-Glo (Promega) and normalised using the negative-controls to calculate as a percentage. All compounds were tested in duplicate. The half-maximal cytotoxic (CC50) values were calculated by the Dotmatics (v.5.3) and Spotfire (v.7.11.1) software using a nonlinear regression four-parameter fit analysis.

[3] = test system: C. elegans young adults; parameters: method as in Taki et al., 2021a; conditions: previous HitFinder library screen, ref Taki et al., 2021a, cited from earlier work
[4] = test system: C. elegans young adults; experiment: C. elegans young adult motility dose-response assay; type: cell-based, Caenorhabditis elegans; conditions: Caenorhabditis elegans, 40 h, young adults; 40 h incubation; three independent assays in triplicate; read-out: Worm motility IC50 ± SD, C. elegans young adults
Protocol: The eggs were then washed five times with 15 mL of sterile M9 buffer (centrifugation at 500×g, 2 min). […] were collected from plates and washed twice with sterile M9 buffer by centrifugation (500×g, 2 min) to remove E. coli OP50, and then resuspended to a concentration of 100 larvae per 50 μL in sterile (autoclaved) LB*. The dose-response assay for C. elegans followed a well-established protocol ([Taki et al., 2021a]) and was employed to evaluate the potency of hit compounds against this nematode. […] Two compounds, monepantel (ZolvixTM; Elanco, Australia) and moxidectin ([…], France) were used as positive controls and prepared in the same manner as the test compounds. […] The test compounds and positive control compounds were arrayed in triplicate across individual flat-bottom 96-well microplates (cat. no. 3596; Corning, Corning, NY, USA), with six wells on each plate containing the negative control. Added to each well were 100 C. elegans in 50 μL of LB* to give a final volume of 100 μL. Plates were then placed in an incubator ([…], model no. IMP180, Thermo Fisher Scientific, USA) at 20 °C for 40 h. […] Over 15 min, disturbance of an infrared beam in individual wells was recorded as an 'activity count'. Raw 'activity counts' for each well were normalised to the negative controls. The compound concentrations were log10-transformed and fitted using a variable slope four-parameter equation, using the ordinary least squares fit model, employing the program Prism (v.9.1.0 GraphPad Software, San Diego, CA, USA).

[5] = biological target: T2, PGP-1 (Caenorhabditis elegans, UniProt P34712); experiment: Thermal proteome profiling (TPP); type: binding; conditions: compound 50 μM, C. elegans lysate, 37-67 °C
T2 construct: from tissue; host or cells: whole-worm lysate of C. elegans N2 (young adults / L4s), NP-40 extract

[6] = biological target: T3, B0361.6 (Caenorhabditis elegans, UniProt Q10950); experiment: Thermal proteome profiling (TPP); type: binding; conditions: compound 50 μM, C. elegans lysate, 37-67 °C
T3 construct: from tissue; host or cells: whole-worm lysate of C. elegans N2 (young adults / L4s)

[7] = test system: human hepatoma (HepG2) cells; experiment: HepG2 mitotoxicity (galactose medium, crystal violet staining); type: cell-based; conditions: 48 h
Protocol: The mitotoxicity of UMW-9729 and six key derivatives (12, 14, 15, 16, 18 and 25) on human hepatoma (HepG2) cells was evaluated as described previously using an established protocol ([Swiss and Will, 2011]; [Kamalian et al., 2015]; [Śliwka et al., 2016]). Test compounds were serially-diluted (7-points, 2-fold serial dilution, 50 μM top concentration) in DMEM (Thermo Fisher Scientific, USA) with GlutaMax™ supplemented with 25 mM D-galactose, 10 % heat-inactivated FBS, 100 IU/mL of penicillin, 100 μg/mL of streptomycin and 0.25 μg/mL of amphotericin B (denoted DMEM*). Monepantel and moxidectin (prepared in the same manner as the test compounds) were included as reference compounds. M-666 ([…]; [Le et al., 2018]) was used as a positive control; 0.25 % DMSO was used as a negative control. HepG2 cells were seeded into wells of a 96-well plate in 80 μL of DMEM* (at 1 × 10^5 cells per well) and allowed to adhere for 16 h (5 % (v/v) CO2, 37 °C, >90% humidity)prior to incubation with individual compounds, at a final volume of 100 μL. […] Following 48 h of incubation with compounds, cell viability was determined by crystal violet staining ([Śliwka et al., 2016]). The absorbance (595 nm) of treated cells was normalised using the negative-controls to calculate the cell viability. […]

T3 sequence (Q10950 whole entry): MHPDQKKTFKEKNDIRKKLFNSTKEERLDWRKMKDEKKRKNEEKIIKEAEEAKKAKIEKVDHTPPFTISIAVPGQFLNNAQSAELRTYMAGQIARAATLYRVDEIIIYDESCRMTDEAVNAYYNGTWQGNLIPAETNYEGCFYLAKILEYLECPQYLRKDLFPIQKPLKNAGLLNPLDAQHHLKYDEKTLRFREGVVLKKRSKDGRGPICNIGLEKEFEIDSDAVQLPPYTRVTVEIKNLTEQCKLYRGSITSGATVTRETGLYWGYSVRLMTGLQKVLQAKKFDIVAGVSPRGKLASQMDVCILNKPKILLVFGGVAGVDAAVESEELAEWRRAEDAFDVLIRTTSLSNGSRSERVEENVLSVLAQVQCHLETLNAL
T1 sequence (P91302 whole entry): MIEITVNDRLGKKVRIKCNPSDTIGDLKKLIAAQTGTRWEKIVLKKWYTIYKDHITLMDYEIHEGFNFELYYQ
T2 sequence (P34712 whole entry): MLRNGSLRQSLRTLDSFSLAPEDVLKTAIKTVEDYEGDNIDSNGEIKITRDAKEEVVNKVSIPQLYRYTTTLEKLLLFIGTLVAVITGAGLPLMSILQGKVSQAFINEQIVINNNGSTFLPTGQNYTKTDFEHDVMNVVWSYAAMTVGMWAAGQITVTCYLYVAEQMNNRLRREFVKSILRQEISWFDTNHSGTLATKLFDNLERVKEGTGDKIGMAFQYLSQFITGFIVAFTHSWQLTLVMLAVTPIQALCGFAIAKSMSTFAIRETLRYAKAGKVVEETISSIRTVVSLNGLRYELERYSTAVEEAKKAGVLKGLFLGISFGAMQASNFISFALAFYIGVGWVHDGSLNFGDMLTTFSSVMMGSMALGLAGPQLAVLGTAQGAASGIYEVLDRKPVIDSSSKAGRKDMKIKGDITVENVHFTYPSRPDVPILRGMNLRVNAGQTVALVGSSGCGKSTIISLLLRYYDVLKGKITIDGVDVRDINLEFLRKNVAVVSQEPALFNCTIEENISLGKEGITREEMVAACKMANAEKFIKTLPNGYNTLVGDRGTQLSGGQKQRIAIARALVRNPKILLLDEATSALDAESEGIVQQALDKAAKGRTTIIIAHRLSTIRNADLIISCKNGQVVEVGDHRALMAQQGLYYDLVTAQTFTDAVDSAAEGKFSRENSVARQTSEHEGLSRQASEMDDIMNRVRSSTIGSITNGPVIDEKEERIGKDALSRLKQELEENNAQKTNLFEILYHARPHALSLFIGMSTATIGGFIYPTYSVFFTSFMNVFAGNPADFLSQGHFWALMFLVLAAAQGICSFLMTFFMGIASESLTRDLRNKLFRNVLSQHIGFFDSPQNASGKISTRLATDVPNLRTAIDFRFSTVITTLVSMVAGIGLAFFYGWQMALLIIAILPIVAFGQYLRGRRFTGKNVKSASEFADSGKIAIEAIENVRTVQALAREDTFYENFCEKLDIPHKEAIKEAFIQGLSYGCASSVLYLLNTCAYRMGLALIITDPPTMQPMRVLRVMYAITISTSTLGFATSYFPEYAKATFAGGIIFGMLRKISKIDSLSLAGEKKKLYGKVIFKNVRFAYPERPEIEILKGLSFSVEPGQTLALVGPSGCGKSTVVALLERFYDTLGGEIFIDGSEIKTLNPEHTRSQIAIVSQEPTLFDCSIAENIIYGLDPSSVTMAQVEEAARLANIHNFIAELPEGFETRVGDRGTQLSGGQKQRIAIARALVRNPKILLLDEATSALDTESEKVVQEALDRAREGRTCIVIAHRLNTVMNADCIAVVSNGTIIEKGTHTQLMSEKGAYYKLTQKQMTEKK

## C(#Cc1ccc(-c2ccn[nH]2)cc1)c1ccccc1 [UMW-9729]
[1]; NPARC
  F-statistic: 34.8
[1]
  thermal stability of protein in the presence of compound: stabilised
[2]
  CC50 at 48 h: > 40 µM
[3]
  maximum motility inhibition, young adults of C. elegans: 88.9%
[3]; read-out: half-maximal inhibitory concentration (IC50), motility of young adults of C. elegans
  IC50: 5.6 µM
[4]
  IC50: 14 ± 2.9 µM
[5]; NPARC
  F-statistic: 27.4
[5]
  thermal stability of protein in the presence of compound: stabilised
[6]; NPARC
  F-statistic: 24.2
[6]
  thermal stability of protein in the presence of compound: stabilised
[7]
  half-maximal mitotoxic concentration (MC50): > 40 µM
